The target of the test is T1, JAK1 (Homo sapiens, UniProt P23458).
T1 construct: endogenous in cells; host or cells: Molt4 (ATCC CRL-1582) and Ramos (ATCC CRL-1596), mixed lysate 1:2
In words: Kinobeads assay, JAK1. Format: binding. The settings on record: mixed Molt4/Ramos lysate, read-out: Inhibition values (IC50) JAK1. Put shortly:
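Mixed Molt4/Ramos cell lysate (1:2) was incubated 3 hours in the cold with kinobeads and a 9-step 1:3 compound dilution series. The no-compound control carried 2% DMSO. Bead-bound JAK1 was eluted, detected by antibody dot blot with infrared fluorescence, and IC50 derived from dose-response curves.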

Broadly, the IC50 is the concentration that gives 50% inhibition.

T1 sequence (P23458 whole entry): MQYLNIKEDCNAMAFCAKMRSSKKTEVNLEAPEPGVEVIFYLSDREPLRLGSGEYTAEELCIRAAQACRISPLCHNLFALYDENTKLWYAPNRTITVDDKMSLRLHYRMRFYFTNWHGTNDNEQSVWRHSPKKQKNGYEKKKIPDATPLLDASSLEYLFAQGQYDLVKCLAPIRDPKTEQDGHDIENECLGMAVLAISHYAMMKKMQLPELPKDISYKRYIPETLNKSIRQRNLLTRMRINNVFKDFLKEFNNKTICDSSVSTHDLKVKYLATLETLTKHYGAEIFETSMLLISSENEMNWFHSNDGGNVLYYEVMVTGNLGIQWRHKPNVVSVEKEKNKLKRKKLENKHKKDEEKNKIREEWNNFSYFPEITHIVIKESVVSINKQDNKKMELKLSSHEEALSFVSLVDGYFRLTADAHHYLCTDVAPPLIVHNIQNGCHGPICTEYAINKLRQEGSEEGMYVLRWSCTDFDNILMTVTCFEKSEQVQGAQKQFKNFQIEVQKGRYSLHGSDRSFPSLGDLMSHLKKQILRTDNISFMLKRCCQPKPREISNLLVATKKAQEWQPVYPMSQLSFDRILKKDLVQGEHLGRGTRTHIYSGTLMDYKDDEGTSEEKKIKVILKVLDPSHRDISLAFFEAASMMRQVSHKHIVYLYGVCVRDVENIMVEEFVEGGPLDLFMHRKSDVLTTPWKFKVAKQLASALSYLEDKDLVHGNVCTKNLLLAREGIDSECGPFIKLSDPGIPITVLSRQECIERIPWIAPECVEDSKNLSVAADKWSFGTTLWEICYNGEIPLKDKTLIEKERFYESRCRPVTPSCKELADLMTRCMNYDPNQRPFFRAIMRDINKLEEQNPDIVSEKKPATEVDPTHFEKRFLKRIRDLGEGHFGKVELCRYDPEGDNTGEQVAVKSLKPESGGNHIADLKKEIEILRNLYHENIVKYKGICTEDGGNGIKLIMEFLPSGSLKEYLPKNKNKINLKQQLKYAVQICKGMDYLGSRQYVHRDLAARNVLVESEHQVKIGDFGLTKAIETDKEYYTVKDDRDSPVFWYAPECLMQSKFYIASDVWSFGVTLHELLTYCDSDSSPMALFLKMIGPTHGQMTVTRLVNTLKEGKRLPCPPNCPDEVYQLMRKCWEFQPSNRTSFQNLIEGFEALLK

For the compound `Cn1cc(Nc2ncc(Cl)c(NC(CO)c3ccccc3)n2)cn1` (centres unmarked) [Compound 1], the half-inhibitory concentration (IC50) was in the range of 1 to 10 µM.
`Cn1cc(Nc2ncc(F)c(NC(CO)c3ccccc3)n2)cn1` (centres unmarked) [Compound 2]: the 50% inhibitory concentration (IC50) is above 10 µM.
Take `Cn1ccc(Nc2ncc(Cl)c(N[C@H](CO)c3ccccc3)n2)n1` [Compound 11]: the IC50 is above 10 µM.
As to `Cc1cnc(Nc2cnn(CCO)c2)nc1NC(CO)c1ccccc1` (centres unmarked) [Compound 12], the IC50 fell in the range of 1 to 10 µM.
For `O=C(c1cc(Nc2ncc(Cl)c(N[C@H](CO)c3ccccc3)n2)c[nH]1)N1CCOCC1` [Compound 13], the 50% inhibitory concentration (IC50) fell in the range of 1 to 10 µM.
For `Cn1cc(Nc2ncc(Cl)c(NC(CO)Cc3ccccc3)n2)cn1` (centres unmarked) [Compound 14], the IC50 was 1 to 10 µM.
For the compound `COC(=O)C(Nc1nc(Nc2cnn(CCO)c2)ncc1Cl)c1ccccc1` (centres unmarked) [Compound 15], the IC50 lay within 1 to 10 µM.
In the case of `COC(=O)C(Nc1nc(Nc2cnn(C)c2)ncc1Cl)c1ccccc1` (centres unmarked) [Compound 16], the IC50 fell in the range of 1 to 10 µM.
With `O=C(O)C(Nc1nc(Nc2cnn(CCO)c2)ncc1Cl)c1ccccc1` (centres unmarked) [Compound 17], the half-maximal inhibitory concentration (IC50) is above 10 µM.
As for `Cn1cc(Nc2ncc(Cl)c(NC(C(=O)O)c3ccccc3)n2)cn1` (centres unmarked) [Compound 18], the IC50 is 1 to 10 µM.
Then `OCCn1cc(Nc2ncc(Cl)c(NC(CO)Cc3ccccc3)n2)cn1` (centres unmarked) [Compound 19], with 0.1 to 1 µM; and `CNC(=O)[C@@H](Nc1nc(Nc2cnn(C)c2)ncc1Cl)c1ccccc1` [Compound 20], with 1 to 10 µM.
Take `CC(C)OC(=O)Cn1cc(Nc2ncc(Cl)c(N[C@H](CO)c3ccccc3)n2)cn1` [Compound 21]: the IC50 was 1 to 10 µM.
Consider `CCOC(=O)Cn1cc(Nc2ncc(Cl)c(N[C@H](CO)c3ccccc3)n2)cn1` [Compound 22], for which the IC50 is 0.1 to 1 µM.
For `O=C(O)Cn1cc(Nc2ncc(Cl)c(N[C@H](CO)c3ccccc3)n2)cn1` [Compound 24], the IC50 lay in the range of 1 to 10 µM.
As for `CN(C)C(=O)[C@@H](Nc1nc(Nc2cnn(C)c2)ncc1Cl)c1ccccc1` [Compound 25], the half-inhibitory concentration (IC50) lay within 1 to 10 µM.
On to `CN(C)C(=O)[C@@H](Nc1nc(Nc2cnn(CCO)c2)ncc1Cl)c1ccccc1` [Compound 26], for which the IC50 was 1 to 10 µM.
Turning to `CCNC(=O)[C@@H](Nc1nc(Nc2cnn(CCO)c2)ncc1Cl)c1ccccc1` [Compound 27], the IC50 is 1 to 10 µM.
Take `CCNC(=O)[C@@H](Nc1nc(Nc2cnn(C)c2)ncc1Cl)c1ccccc1` [Compound 28]: the IC50 was 1 to 10 µM.
Consider `COCCNC(=O)[C@@H](Nc1nc(Nc2cnn(C)c2)ncc1Cl)c1ccccc1` [Compound 29], for which the IC50 is 1 to 10 µM.
For `CNC(=O)Cn1cc(Nc2ncc(Cl)c(NC(CO)c3c(F)cccc3F)n2)cn1` (centres unmarked) [Compound 31], the IC50 was in the range of 1 to 10 µM.
Regarding `CNC(=O)Cn1cc(Nc2ncc(Cl)c(NC(CO)c3cccc(F)c3)n2)cn1` (centres unmarked) [Compound 32], the IC50 lay in the range of 1 to 10 µM.
As for `CNC(=O)Cn1cc(Nc2ncc(Cl)c(NC(CO)c3ccccc3F)n2)cn1` (centres unmarked) [Compound 33], the figure is 1 to 10 µM.
In the case of `Cn1cc(Nc2ncc(Cl)c(N[C@H](C(=O)N3CCCC3)c3ccccc3)n2)cn1` [Compound 34], the IC50 is 1 to 10 µM.
Take `O=C([C@@H](Nc1nc(Nc2cnn(CCO)c2)ncc1Cl)c1ccccc1)N1CCCC1` [Compound 35]: the IC50 fell in the range of 1 to 10 µM.
On to `OCCn1cc(Nc2ncc(Cl)c(NC(CO)c3ccccc3F)n2)cn1` (centres unmarked) [Compound 36], for which the half-inhibitory concentration (IC50) fell in the range of 0.1 to 1 µM.
As for `Cn1cc(Nc2ncc(Cl)c(NC(CO)c3ccccc3F)n2)cn1` (centres unmarked) [Compound 37], the figure is 1 to 10 µM.
Then `CC(O)Cn1cc(Nc2ncc(Cl)c(NC(CO)c3cccc(F)c3)n2)cn1` (centres unmarked) [Compound 38], with 0.1 to 1 µM.
As to `OCCn1cc(Nc2ncc(Cl)c(NC(CO)c3cccc(F)c3)n2)cn1` (centres unmarked) [Compound 39], the IC50 lay within 0.1 to 1 µM.
As to `Cn1cc(Nc2ncc(Cl)c(NC(CO)c3cccc(F)c3)n2)cn1` (centres unmarked) [Compound 40], the concentration for half-maximal inhibition (IC50) was 1 to 10 µM.
As to `OCCn1ccc(Nc2ncc(Cl)c(NC(CO)c3cccc(F)c3)n2)n1` (centres unmarked) [Compound 41], the IC50 was above 10 µM.
`CC(O)Cn1cc(Nc2ncc(Cl)c(NC(CO)c3c(F)cccc3F)n2)cn1` (centres unmarked) [Compound 42]: the IC50 was 1 to 10 µM.
Regarding `OCCn1cc(Nc2ncc(Cl)c(NC(CO)c3c(F)cccc3F)n2)cn1` (centres unmarked) [Compound 43], the IC50 fell in the range of 0.1 to 1 µM.
With `Cn1cc(Nc2ncc(Cl)c(NC(CO)c3c(F)cccc3F)n2)cn1` (centres unmarked) [Compound 44], the IC50 lay within 1 to 10 µM.
As for `OCCn1ccc(Nc2ncc(Cl)c(NC(CO)c3c(F)cccc3F)n2)n1` (centres unmarked) [Compound 45], the IC50 was above 10 µM.
For the compound `Cn1cc(Nc2ncc(Cl)c(N[C@H](C(=O)NCCO)c3ccccc3)n2)cn1` [Compound 46], the IC50 lay in the range of 1 to 10 µM.
Take `O=C(NCCO)[C@@H](Nc1nc(Nc2cnn(CCO)c2)ncc1Cl)c1ccccc1` [Compound 47]: the IC50 is 0.1 to 1 µM.
Consider `COCCNC(=O)[C@@H](Nc1nc(Nc2cnn(CCO)c2)ncc1Cl)c1ccccc1` [Compound 48], for which the IC50 was 0.1 to 1 µM.
As for `Cn1cc(Nc2ncc(Cl)c(N[C@H](C(=O)N3CCCCC3)c3ccccc3)n2)cn1` [Compound 49], the figure is 1 to 10 µM.
As for `OCCn1ccc(Nc2ncc(Cl)c(NC(CO)c3ccccc3F)n2)n1` (centres unmarked) [Compound 50], the IC50 was above 10 µM.
`O=C([C@@H](Nc1nc(Nc2cnn(CCO)c2)ncc1Cl)c1ccccc1)N1CCCCC1` [Compound 51]: the IC50 is above 10 µM.
In the case of `Cn1cc(Nc2ncc(Cl)c(NC(CO)c3cccc(Br)c3)n2)cn1` (centres unmarked) [Compound 52], the IC50 is 1 to 10 µM.
Turning to `Cn1cc(Nc2ncc(Cl)c(NC(CO)c3cccc(N4CC5(COC5)C4)c3)n2)cn1` (centres unmarked) [Compound 53], the IC50 was above 10 µM.
Consider `Cn1cc(Nc2ncc(Cl)c(N[C@@H](CO)c3ccccc3)n2)cn1` [Compound 54], for which the half-inhibitory concentration (IC50) was above 10 µM.
Regarding `COC[C@@H](Nc1nc(Nc2cnn(C)c2)ncc1Cl)c1ccccc1` [Compound 55], the IC50 was above 10 µM.
Regarding `NC(=O)Cn1cc(Nc2ncc(Cl)c(N[C@H](CO)c3ccccc3)n2)cn1` [Compound 56], the IC50 was in the range of 0.1 to 1 µM.
`CC(C)(O)Cn1cc(Nc2ncc(Cl)c(NC(CO)c3ccccc3F)n2)cn1` (centres unmarked) [Compound 57]: the IC50 lay within 1 to 10 µM.
As to `Cn1cc(Nc2ncc(Cl)c(N[C@H](CO)c3ccccc3F)n2)cn1` [Compound 58], the half-inhibitory concentration (IC50) lay within 1 to 10 µM.
For the compound `Cn1cc(Nc2ncc(Cl)c(N[C@H](C(=O)NC3CCCC3)c3ccccc3)n2)cn1` [Compound 59], the IC50 is above 10 µM.
Turning to `O=C(NC1CCCC1)[C@@H](Nc1nc(Nc2cnn(CCO)c2)ncc1Cl)c1ccccc1` [Compound 60], the IC50 lay in the range of 1 to 10 µM.
As to `CC(C)(O)Cn1cc(Nc2ncc(Cl)c(NC(CO)c3cccc(F)c3)n2)cn1` (centres unmarked) [Compound 61], the IC50 is 1 to 10 µM.
As for `CC(C)(O)Cn1cc(Nc2ncc(Cl)c(NC(CO)c3c(F)cccc3F)n2)cn1` (centres unmarked) [Compound 62], the figure is 1 to 10 µM; as for `OCCn1cc(Nc2ncc(Cl)c(N[C@@H](CO)c3ccccc3)n2)cn1` [Compound 63], 1 to 10 µM; as for `OCCCn1cc(Nc2ncc(Cl)c(NC(CO)c3ccccc3F)n2)cn1` (centres unmarked) [Compound 64], 1 to 10 µM.
Take `OCC[C@@H](Nc1nc(Nc2cnn(CCO)c2)ncc1Cl)c1ccccc1` [Compound 65]: the IC50 is 1 to 10 µM.
As for `CNC(=O)Cn1cc(Nc2ncc(Cl)c(N[C@H](CCO)c3ccccc3)n2)cn1` [Compound 66], the half-maximal inhibitory concentration (IC50) was 1 to 10 µM.
Consider `Cn1cc(Nc2ncc(Cl)c(NC(CO)c3cccc(-c4cnn(C)c4)c3)n2)cn1` (centres unmarked) [Compound 69], for which the IC50 is above 10 µM.
Consider `CN(CC#N)C(=O)Cn1cc(Nc2ncc(Cl)c(N[C@H](CO)c3ccccc3)n2)cn1` [Compound 70], for which the IC50 is 0.1 to 1 µM.
Take `Cn1cc(Nc2ncc(Cl)c(NC(CO)c3ccc(F)cc3)n2)cn1` (centres unmarked) [Compound 71]: the IC50 is 1 to 10 µM.
With `OCCn1cc(Nc2ncc(Cl)c(NC(CO)c3ccc(F)cc3)n2)cn1` (centres unmarked) [Compound 72], the IC50 fell in the range of 1 to 10 µM.
`CC(C)(C(N)=O)n1cc(Nc2ncc(Cl)c(N[C@H](CO)c3ccccc3F)n2)cn1` [Compound 73]: the IC50 is 1 to 10 µM.
Turning to `COc1ccccc1[C@@H](CO)Nc1nc(Nc2cnn(C)c2)ncc1Cl` [Compound 74], the IC50 lay in the range of 0.1 to 1 µM.
As for `COc1ccccc1[C@@H](CO)Nc1nc(Nc2cnn(CCO)c2)ncc1Cl` [Compound 76], the IC50 fell in the range of 0.1 to 1 µM.
For `OCCn1cc(Nc2ncc(Cl)c(N[C@H](CO)c3ccccc3F)n2)cn1` [Compound 77], the IC50 was 0.1 to 1 µM.
In the case of `OC[C@@H](Nc1nc(Nc2cn[nH]c2)ncc1Cl)c1ccccc1F` [Compound 79], the IC50 is 0.1 to 1 µM.
`OCCn1cc(Nc2ncc(Cl)c(N[C@H](CO)c3ccccn3)n2)cn1` [Compound 80]: the IC50 was in the range of 0.1 to 1 µM.
In the case of `NC(=O)Cn1cc(Nc2ncc(Cl)c(N[C@H](CO)c3ccccn3)n2)cn1` [Compound 81], the IC50 is 0.1 to 1 µM.
As for `COc1cccc([C@@H](CO)Nc2nc(Nc3cnn(C)c3)ncc2Cl)c1` [Compound 82], the figure is 1 to 10 µM.
Then `COc1cccc([C@@H](CO)Nc2nc(Nc3cnn(CCO)c3)ncc2Cl)c1` [Compound 83], with 1 to 10 µM; and `COc1cccc([C@@H](CO)Nc2nc(Nc3cnn(CC(N)=O)c3)ncc2Cl)c1` [Compound 84], with 1 to 10 µM; and `Cc1cnc(Nc2cnn(CC(F)F)c2)nc1N[C@H](CO)c1cc(F)cc(F)c1` [Compound 167], with 1 to 10 µM.
Regarding `Cc1cnc(Nc2cnn(CC(F)F)c2)nc1NC(CO)c1c(F)cccc1F` (centres unmarked) [Compound 168], the IC50 was 1 to 10 µM.
As to `Cc1cnc(Nc2cnn(CC(=O)N3CCOCC3)c2)nc1NC(CO)c1c(F)cccc1F` (centres unmarked) [Compound 169], the IC50 lay in the range of 1 to 10 µM.
As for `CNC(=O)Cn1cc(Nc2ncc(Cl)c(N[C@H](CO)c3cccnc3)n2)cn1` [Compound 170], the figure is 1 to 10 µM.

Source of the values: patent US20140179664A1, “Heterocyclyl Pyrimidine Analogues As JAK Inhibitors” (Cellzome Limited, priority 2011, published 2014).
